Laboratory results published in ChEMBL document CHEMBL1806385, “Discovery of potent, soluble and orally active TRPV1 antagonists. Structure-activity relationships of a series of isoxazoles” (Bioorg Med Chem Lett, 2011).
In brackets after ≈: the same amount, converted by molar mass.

Legend:
[1] = target: Transient receptor potential cation channel subfamily V member 1 (Homo sapiens, UniProt Q8NER1)
Description: Antagonist activity at human TRPV1 expressed in CHO cells assessed as inhibition of calcium flux by FLIPR assay

physchem = conditions: phosphate buffered saline, pH 7.4
Description: Intrinsic solubility of the compound in phosphate buffered saline at pH 7.4 by shake-flask method

[2] = Plasma protein binding in human; format: ADME, cell-free; conditions: read-out: PPB (converted)
[3] = Intrinsic clearance in human liver microsomes; format: ADME, Microsome
[4] = Intrinsic clearance in rat liver microsomes; format: ADME, Microsome
[5] = Plasma protein binding in Wistar rat; format: ADME, cell-free; conditions: read-out: PPB (converted)
[6] = Intrinsic clearance in human hepatocytes assessed per 10^6 cells; format: ADME, cell-based, Liver, Hepatocyte
[7] = Intrinsic clearance in rat hepatocytes assessed per 10^6 cells; format: ADME, cell-based, Liver, Hepatocyte
Rattus norvegicus = assay: Antihyperalgesic activity in po dosed rat capsaicin hargreaves model assessed as reversal of capsaicin-induced thermal hyperalgesia measured by paw withdrawal latency administered 2 hrs before capsaicin challenge; format: functional
[8] = AUClast in po dosed rat; format: ADME, organism-based; design: route oral, time 0 - last; conditions: plasma

Transient receptor potential cation channel subfamily V member 1, sequence (Q8NER1 whole entry): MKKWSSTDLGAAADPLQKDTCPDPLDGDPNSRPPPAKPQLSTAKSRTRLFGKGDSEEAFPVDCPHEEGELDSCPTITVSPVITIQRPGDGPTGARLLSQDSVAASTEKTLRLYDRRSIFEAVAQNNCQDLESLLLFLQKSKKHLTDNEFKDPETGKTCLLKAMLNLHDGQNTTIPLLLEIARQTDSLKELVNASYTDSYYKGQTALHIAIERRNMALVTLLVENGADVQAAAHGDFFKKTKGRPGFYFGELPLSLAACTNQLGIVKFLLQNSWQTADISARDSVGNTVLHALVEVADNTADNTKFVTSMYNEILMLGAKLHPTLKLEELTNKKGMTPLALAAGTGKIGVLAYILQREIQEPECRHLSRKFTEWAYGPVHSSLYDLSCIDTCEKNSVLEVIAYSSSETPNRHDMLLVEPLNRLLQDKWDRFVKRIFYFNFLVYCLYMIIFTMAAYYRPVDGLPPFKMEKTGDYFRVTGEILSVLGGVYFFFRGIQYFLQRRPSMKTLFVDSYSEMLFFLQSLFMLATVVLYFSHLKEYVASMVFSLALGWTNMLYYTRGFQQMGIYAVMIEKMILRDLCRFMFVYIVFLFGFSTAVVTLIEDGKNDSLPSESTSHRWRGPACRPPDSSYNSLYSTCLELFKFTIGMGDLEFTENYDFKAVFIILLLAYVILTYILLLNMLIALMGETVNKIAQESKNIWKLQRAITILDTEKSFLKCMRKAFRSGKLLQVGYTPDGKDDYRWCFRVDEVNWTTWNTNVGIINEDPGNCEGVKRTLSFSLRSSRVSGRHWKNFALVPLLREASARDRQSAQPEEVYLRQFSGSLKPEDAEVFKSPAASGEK

| IC50 [1] [nM] | solubility thermodynamic (physchem) [µg/mL] | Structure (SMILES) | further results |
| --- | --- | --- | --- |
| 158 | 1 (≈ 2.82 µM) | O=C(NC1CCCC1)c1noc(-c2ccc(C(F)(F)F)cc2)c1CO |  |
| 3.16 | 11 (≈ 29.5 µM) | O=C(N[C@@H]1CCC[C@H](O)C1)c1onc(-c2ccc(Cl)c(F)c2)c1Cl |  |
| 794 | 47 (≈ 139 µM) | O=C(N[C@@H]1CCC[C@H](O)C1)c1onc(-c2ccc(F)cc2)c1Cl |  |
| 79.4 | 73 (≈ 190 µM) | O=C(N[C@@H]1CCC[C@H](O)C1)c1noc(-c2ccc(C(F)(F)F)cc2)c1CO | fraction unbound [2]: 0.081; microsomal CLint [3]: < 12 µL/min/mg; microsomal CLint [4]: 27 µL/min/mg; fraction unbound [5]: 0.091 |
| 20 | 1.4 (≈ 3.74 µM) | CC(C)[C@H](C)NC(=O)c1noc(-c2ccc(C(F)(F)F)c(F)c2)c1CO |  |
| 39.8 | 73 (≈ 196 µM) | O=C(NC1CCCC1)c1noc(-c2ccc(C(F)(F)F)c(F)c2)c1CO |  |
| 794 | 12 (≈ 30.2 µM) | CC(C)NCc1c(C(=O)N[C@H](C)C(C)C)noc1-c1ccc(C(F)(F)F)cc1 |  |
| 0.631 | < 1 | O=C(N[C@@H]1CCC[C@H](O)C1)c1noc(-c2ccc(C(F)(F)F)c(F)c2)c1Cl |  |
| 1580 | 72 (≈ 195 µM) | O=C(NC1CCCC1)c1noc(-c2ccc(C(F)(F)F)cc2)c1C(=O)O |  |
| 12.6 | 27 (≈ 71.3 µM) | CCOc1cc(Cl)ccc1-c1onc(C(=O)N[C@@H]2CCC[C@H](O)C2)c1C |  |
| 158 | 31 (≈ 82.4 µM) | CC[C@H](CO)NC(=O)c1noc(-c2ccc(C(F)(F)F)c(F)c2)c1CO |  |
| 316 | 13 (≈ 32.9 µM) | CC(C)NCc1c(C(=O)NC2CCCC2)noc1-c1ccc(C(F)(F)F)cc1 |  |
| 5010 | < 1 | CC(C)(O)c1c(C(=O)NC2CCCC2)noc1-c1ccc(C(F)(F)F)cc1 |  |
| 3160 | 35 (≈ 94.5 µM) | O=C(NC1CCOCC1)c1noc(-c2ccc(C(F)(F)F)cc2)c1CO |  |
| 1580 | 70 (≈ 182 µM) | O=C(NC1CCC(O)CC1)c1noc(-c2ccc(C(F)(F)F)cc2)c1CO (stereo not drawn) |  |
| 2 | 4 (≈ 10.4 µM) | Cc1c(C(=O)N[C@@H]2CCC[C@H](O)C2)noc1-c1ccc(C(F)(F)F)c(F)c1 |  |
| 5.01 | 3 (≈ 8.45 µM) | O=C(N[C@@H]1CCC[C@H](O)C1)c1noc(-c2ccc(Cl)cc2)c1Cl |  |
| 0.501 | < 1 | O=C(N[C@@H]1CCC[C@H](O)C1)c1noc(-c2ccc(C(F)(F)F)cc2)c1Cl | fraction unbound [2]: 0.01; microsomal CLint [3]: < 12 µL/min/mg; microsomal CLint [4]: < 12 µL/min/mg; fraction unbound [5]: 0.007 |
| 1000 | < 1 | CC(O)c1c(C(=O)NC2CCCC2)noc1-c1ccc(C(F)(F)F)cc1 (stereo not drawn) |  |
| 2000 | < 1 | CN(C)C(=O)c1c(C(=O)NC2CCCC2)noc1-c1ccc(C(F)(F)F)cc1 |  |
| 12.6 | < 1 | CCOc1cc(Cl)ccc1-c1onc(C(=O)NC2CCOCC2)c1C |  |
| 1580 | 66 (≈ 184 µM) | CC[C@H](CO)NC(=O)c1noc(-c2ccc(C(F)(F)F)cc2)c1CO |  |
| 50.1 | 38 (≈ 112 µM) | O=C(N[C@@H]1CCC[C@H](O)C1)c1noc(-c2ccc(F)cc2)c1Cl |  |
| 200 | 28 (≈ 73.9 µM) | CCOc1cc(Cl)ccc1-c1onc(C(=O)NC2CCC(O)CC2)c1C (stereo not drawn) |  |
| 126 | 1.5 (≈ 4.21 µM) | CC(C)[C@H](C)NC(=O)c1noc(-c2ccc(C(F)(F)F)cc2)c1CO |  |
| 0.631 | 2 (≈ 5.36 µM) | O=C(N[C@@H]1CCC[C@H](O)C1)c1noc(-c2ccc(Cl)c(F)c2)c1Cl |  |
| 5010 | 1.6 (≈ 4.05 µM) | CCNC(=O)c1c(C(=O)NC2CCCC2)noc1-c1ccc(C(F)(F)F)cc1 |  |
|  |  | CC(C)NCc1c(C(=O)N[C@@H]2CCC[C@H](O)C2)noc1-c1ccc(C(F)(F)F)cc1 | hepatocyte CLint [6]: < 6 µL/min/1e6 cells; hepatocyte CLint [7]: < 6 µL/min/1e6 cells; MED (Rattus norvegicus): 30 µmol/kg; AUC(0-t) [8]: 2730 ng·h/mL |
| 63.1 | 4 (≈ 10.1 µM) | CC(C)NCc1c(C(=O)N[C@@H](C)C(C)C)noc1-c1ccc(C(F)(F)F)cc1 |  |
